Assay results as given in publication PMC7356696, “Synthesis, Antimicrobial Activity and Molecular Docking of Novel Thiourea Derivatives Tagged with Thiadiazole, Imidazole and Triazine Moieties as Potential DNA Gyrase and Topoisomerase IV Inhibitors” (Molecules, 2020).
≈ marks a conversion by molar mass, not a printed value. Like-named read-outs stand apart in the source and are kept apart here.

Assays:
[1] = test system: Escherichia coli ATCC 25922; assay: MIC, modified agar well diffusion method; format: cell-based; details: ATCC25922, E. coli ATCC 25922, read-out: MIC (Mean ± SEM)
Source text: (§1) The antimicrobial activity of all synthesized compounds 2–13 was screened against a panel of two Gram-positive bacteria (Staphylococcus aureus ATCC 29213 and Bacillus subtilis ATCC 6633), two Gram-negative bacteria (Escherichia coli ATCC 25922, Pseudomonas aeruginosa ATCC 27853) and two fungi (Candida albicans ATCC 10231 and Aspergillus flavus ATCC 46283) using the agar well diffusion method. Ciprofloxacin and clotrimazole were used as antibacterial and antifungal standards, respectively. The results of this study were recorded as the average diameter of the inhibition zones (IZ) in Table 1. […] Additionally, the promising activity against S. aureus was observed from compounds 9, 12 and 13, however against B. subtilis from compounds 12 and 13.
(§2) The antimicrobial assay was performed in vitro for the target compounds 2–13 against Staphylococcus aureus ATCC 29213, Bacillus subtilis ATCC 6633 as Gram-positive bacteria, Escherichia coli ATCC 25922, Pseudomonas aeruginosa ATCC 27853 as Gram-negative bacteria and Candida albicans ATCC 10231, Aspergillus flavus ATCC 46283 as fungi. At the first, 100 μL of the test bacteria/fungi were grown in 10 mL of fresh media until they reached a count of approximately 10^8 cells/ml for bacteria or 10^5 cells/mL for fungi. One milliliter of each sample (at 0.5 mg/mL) was added to each well (10 mm diameter holes cut in the agar gel). The plates were incubated for 24 h at 37 °C (for bacteria and yeast) and for 72 h at 27 °C (for filamentous fungi), each test was repeated three times. After incubation, the microorganism’s growth was observed. Ciprofloxacin and clotrimazole were used as standard antibacterial and antifungal drugs, respectively. The resulting inhibition zone diameters were measured in millimeters using the diffusion technique. […] The different concentrations (triplicate) of each compound were tested and compared with standard drugs.

[2] = test system: Staphylococcus aureus ATCC 29213; assay: MIC, modified agar well diffusion method; format: cell-based; details: ATCC29213, S. aureus ATCC 29213, read-out: MIC (Mean ± SEM)
Source text: as §1, §2

[3] = test system: Pseudomonas aeruginosa ATCC 27853; assay: MIC, modified agar well diffusion method; format: cell-based; details: ATCC27853, P. aeruginosa ATCC 27853, read-out: MIC (Mean ± SEM)
Source text: as §1, §2

[4] = test system: Bacillus subtilis ATCC 6633; assay: MIC, modified agar well diffusion method; format: cell-based; details: ATCC6633, B. subtilis ATCC 6633, read-out: MIC (Mean ± SEM)
Source text: as §1, §2

[5] = test system: Staphylococcus aureus ATCC 29213; assay: Agar well diffusion, inhibition zone; format: cell-based; parameters: dose or concentration left out as unconfirmed; details: ATCC29213, S. aureus ATCC 29213, NA = No Activity, read-out: Mean Diameter of Inhibition Zone (Mean ± SEM)
Source text: as §1
as §2, with “One milliliter of each sample (at 0.5 mg/mL) was added to each well (10 mm diameter holes cut in the agar gel).” left out

[6] = test system: Bacillus subtilis ATCC 6633; assay: Agar well diffusion, inhibition zone; format: cell-based; parameters: dose or concentration left out as unconfirmed; details: ATCC6633, B. subtilis ATCC 6633, NA = No Activity, read-out: Mean Diameter of Inhibition Zone (Mean ± SEM)
Source text: as §1
as §2, with “One milliliter of each sample (at 0.5 mg/mL) was added to each well (10 mm diameter holes cut in the agar gel).” left out

[7] = test system: Escherichia coli ATCC 25922; assay: Agar well diffusion, inhibition zone; format: cell-based; parameters: dose or concentration left out as unconfirmed; details: ATCC25922, E. coli ATCC 25922, NA = No Activity, read-out: Mean Diameter of Inhibition Zone (Mean ± SEM)
Source text: as §1, §2

[8] = test system: Pseudomonas aeruginosa ATCC 27853; assay: Agar well diffusion, inhibition zone; format: cell-based; parameters: dose or concentration left out as unconfirmed; details: ATCC27853, P. aeruginosa ATCC 27853, NA = No Activity, read-out: Mean Diameter of Inhibition Zone (Mean ± SEM)
Source text: as §1, §2

[9] = test system: Candida albicans ATCC 10231; assay: MIC, modified agar well diffusion method; format: cell-based; details: ATCC10231, C. albicans ATCC 10231, read-out: MIC (Mean ± SEM)
Source text: as §1, §2

[10] = test system: Aspergillus flavus ATCC 46283; assay: MIC, modified agar well diffusion method; format: cell-based; details: ATCC46283, A. flavus ATCC 46283, read-out: MIC (Mean ± SEM)
Source text: as §1, §2

[11] = test system: Candida albicans ATCC 10231; assay: Agar well diffusion, inhibition zone; format: cell-based; parameters: dose or concentration left out as unconfirmed; details: ATCC10231, C. albicans ATCC 10231, NA = No Activity, read-out: Mean Diameter of Inhibition Zone (Mean ± SEM)
Source text: as §1, §2

[12] = test system: Aspergillus flavus ATCC 46283; assay: Agar well diffusion, inhibition zone; format: cell-based; parameters: dose or concentration left out as unconfirmed; details: ATCC46283, A. flavus ATCC 46283, NA = No Activity, read-out: Mean Diameter of Inhibition Zone (Mean ± SEM)
Source text: as §1, §2

[13] = MTT assay for cytotoxic activity; format: cell-based; details: African green monkey, Vero cells (normal kidney epithelial cell line), read-out: IC50 (Mean ± SEM), cytotoxic activity
Source text: (§3) The results are expressed as IC50 values (µM) and are depicted in Table 3.

[14] = test system: human breast cancer (MCF-7) cells; assay: MTT assay for cytotoxic activity; format: cell-based; details: read-out: IC50 (Mean ± SEM), cytotoxic activity
Source text: as §3

[15] = test system: Staphylococcus aureus DNA gyrase; parameters: method as in PMID 25792505; details: cited from earlier work
[16] = target: T1, dihydrofolate reductase (DHFR) (Homo sapiens, UniProt P00374); parameters: method as in PMID 23792351; details: cited from earlier work
T1 construct: purchased Bio Vision
T1 sequence (P00374 1-187): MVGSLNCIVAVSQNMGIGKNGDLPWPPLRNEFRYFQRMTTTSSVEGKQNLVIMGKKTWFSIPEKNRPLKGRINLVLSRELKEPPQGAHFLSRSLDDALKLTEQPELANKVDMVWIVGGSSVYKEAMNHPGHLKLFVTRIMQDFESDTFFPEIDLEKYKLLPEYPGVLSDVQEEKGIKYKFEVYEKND

[17] = Homo sapiens, MCF7, MCF-7 cells

MIC [1] [µg/mL]	MIC [2] [µg/mL]	MIC [3] [µg/mL]	MIC [4] [µg/mL]	MIC [9] [µg/mL]	MIC [10] [µg/mL]	SMILES	zone of inhibition [5] [mm]	zone of inhibition [6] [mm]	zone of inhibition [7] [mm]	zone of inhibition [8] [mm]	zone of inhibition [11] [mm]	zone of inhibition [12] [mm]	IC50 [13] [µM]	IC50 [14, 17] [µM]	IC50 ([14]; MCF-7 cells) [µM]	IC50 [15] [µM]	fold more active than the positive control methotrexate as DHFR inhibitor [16] [fold]
2.9 ± 0.25 (≈ 8.75 µM)	5.85 ± 0.13 (≈ 17.7 µM)	2.9 ± 0.04 (≈ 8.75 µM)	2.9 ± 0.02 (≈ 8.75 µM)			O=C(O)c1cn(C2CC2)c2cc(N3CCNCC3)c(F)cc2c1=O [Ciprofloxacin, reference compound]	24 ± 0.6	23 ± 0.2	26 ± 0.25	23 ± 0.9							
				12.5 ± 0.15 (≈ 36.2 µM)	4.25 ± 0.05 (≈ 12.3 µM)	Clc1ccccc1C(c1ccccc1)(c1ccccc1)n1ccnc1 [Clotrimazole, reference compound]					27 ± 0.21	25 ± 0.4					
						CCOC(=O)CNC(=S)NC(=O)Cc1ccccc1 [Compound 2, Ethyl ((2-phenylacetyl)carbonothionyl)glycinate]	9 ± 0.61										
7.8 ± 0.1 (≈ 17.7 µM)	5.12 ± 0.05 (≈ 11.6 µM)	2.48 ± 0.11 (≈ 5.63 µM)	2.29 ± 0.05 (≈ 5.2 µM)	91 ± 0.02 (≈ 207 µM)	26.2 ± 0.03 (≈ 59.5 µM)	O=C(Cc1ccccc1)NC(=S)NN1C(=O)C(=Cc2ccccc2)N=C1c1ccccc1 [Compound 6, 1-(4-Benzylidene-4,5-dihydro-5-oxo-2-phenylimidazol-1-yl)-3-(2-phenylacetyl)thiourea]	27 ± 0.2	30 ± 0.26	12 ± 0.1	21 ± 0.26	6 ± 0.22	9 ± 0.03	122.8 ± 0.4	23.7 ± 0.96			
4.22 ± 0.12 (≈ 9.2 µM)	4.15 ± 0.22 (≈ 9.05 µM)	2.81 ± 0.01 (≈ 6.13 µM)	1.39 ± 0.5 (≈ 3.03 µM)	64 ± 0.41 (≈ 140 µM)	5.21 ± 0.11 (≈ 11.4 µM)	O=C(Cc1ccccc1)NC(=S)NNC(=O)C(=Cc1ccccc1)NC(=O)c1ccccc1 [Compound 7a, 1-(2-Benzamido-3-phenylacryloyl)-4-phenylacetylthiosemicarbazide]	30 ± 0.22	33 ± 0.5	18 ± 0.22	27 ± 0.03	15 ± 0.3	24 ± 0.02	149.1 ± 0.21	10.2 ± 0.65			
4.68 ± 0.13 (≈ 10.1 µM)	3.9 ± 0.26 (≈ 8.39 µM)	2.72 ± 0.15 (≈ 5.85 µM)	1.46 ± 0.1 (≈ 3.14 µM)	76 ± 0.31 (≈ 164 µM)	5.7 ± 0.01 (≈ 12.3 µM)	O=C(Cc1ccccc1)NC(=S)NNC(=O)C(=Cc1cccs1)NC(=O)c1ccccc1 [Compound 7b, 1-(2-Benzamido-3-(thiophen-2-yl)acryloyl)-4-phenylacetylthiosemicarbazide]	33 ± 0.01	35 ± 0.26	18 ± 0.41	26 ± 0.21	16 ± 0.12	25 ± 0.15	133.3 ± 0.4	11.6 ± 0.59	11.6 ± 0.59		
	9.92 ± 0.3 (≈ 38.4 µM)	17.6 ± 0.2 (≈ 68.2 µM)	8.6 ± 0.25 (≈ 33.3 µM)	94 ± 0.1 (≈ 364 µM)	20.4 ± 0.3 (≈ 79.2 µM)	O=c1cc2nc(Cc3ccccc3)[nH]c(=S)n2[nH]1 [Compound 9, 2-Benzyl-3,4-dihydro-4-thioxopyrazolo[1,5-a][1,3,5]triazin-7(6H)-one]	21 ± 0.3	18 ± 0.25		9 ± 0.25	9 ± 0.2	15 ± 0.33	62.45 ± 0.2	26.4 ± 0.46			
						N#CCc1nnc(NC(=O)Cc2ccccc2)s1 [Compound 10, N-(5-(Cyanomethyl)-1,3,4-thiadiazol-2-yl)-2-phenylacetamide]	15 ± 0.42	12 ± 0.21		6 ± 0.02		6 ± 0.41					
						N=c1oc2ccccc2cc1-c1nnc(NC(=O)Cc2ccccc2)s1 [Compound 11, N-(5-(2-Imino-2H-chromen-3-yl)-1,3,4-thiadiazol-2-yl)-2-phenylacetamide]	12 ± 0.3	6 ± 0.53									
27 ± 0.02 (≈ 61.3 µM)	5.22 ± 0.03 (≈ 11.8 µM)	12.5 ± 0.2 (≈ 28.4 µM)	2.3 ± 0.05 (≈ 5.22 µM)	85 ± 0.15 (≈ 193 µM)	15.6 ± 0.01 (≈ 35.4 µM)	O=C(Cc1ccccc1)NC(=S)N1NC(=O)C(=Cc2ccccc2)N=C1c1ccccc1 [Compound 12, 5-Benzylidene-5,6-dihydro-N-(1-hydroxy-2-phenylethylidene)-6-oxo-3-phenyl-1,2,4-triazine-2(1H)-carbothioamide]	22 ± 0.05	23 ± 0.01	5 ± 0.58	17 ± 0.2	14 ± 0.21	18 ± 0.03	79.19 ± 0.28	35.9 ± 0.85			
33 (≈ 73.9 µM)	5.6 ± 0.15 (≈ 12.5 µM)	13.41 ± 0.1 (≈ 30 µM)	2.72 ± 1.11 (≈ 6.09 µM)	83 ± 0.22 (≈ 186 µM)	14.6 ± 0.2 (≈ 32.6 µM)	O=C(Cc1ccccc1)Nc1nnc(C(=Cc2cccs2)NC(=O)c2ccccc2)s1 [Compound 13, N-(1-(5-(2-Phenylacetamido)-1,3,4-thiadiazol-2-yl)-2-(thiophen-2-yl)vinyl)benzamide]	21 ± 0.1	24 ± 1.11	6 ± 0.15	15 ± 0.11	12 ± 0.46	18 ± 0.22	84.11 ± 0.32	37.7 ± 0.93			
						Cc1occc1C(=O)NNC(=S)NC(=O)c1ccccc1 [I]										14.6	
						COc1ccc(NC(=S)Nc2nc(-c3nnc(S)n3-c3ccc(OC)cc3OC)cs2)c(OC)c1 [V]											2.7
